Data reported in ChEMBL document CHEMBL1140430, “Novel indole-based peroxisome proliferator-activated receptor agonists: design, SAR, structural biology, and biological activities” (J Med Chem, 2005).
Calls of active or inactive are those of the source. The rule behind the calls is not given here.

How the values were obtained:
[1] = molecular target: T1, Peroxisome proliferator-activated receptor gamma (Homo sapiens, UniProt P37231)
T1 sequence (P37231 whole entry): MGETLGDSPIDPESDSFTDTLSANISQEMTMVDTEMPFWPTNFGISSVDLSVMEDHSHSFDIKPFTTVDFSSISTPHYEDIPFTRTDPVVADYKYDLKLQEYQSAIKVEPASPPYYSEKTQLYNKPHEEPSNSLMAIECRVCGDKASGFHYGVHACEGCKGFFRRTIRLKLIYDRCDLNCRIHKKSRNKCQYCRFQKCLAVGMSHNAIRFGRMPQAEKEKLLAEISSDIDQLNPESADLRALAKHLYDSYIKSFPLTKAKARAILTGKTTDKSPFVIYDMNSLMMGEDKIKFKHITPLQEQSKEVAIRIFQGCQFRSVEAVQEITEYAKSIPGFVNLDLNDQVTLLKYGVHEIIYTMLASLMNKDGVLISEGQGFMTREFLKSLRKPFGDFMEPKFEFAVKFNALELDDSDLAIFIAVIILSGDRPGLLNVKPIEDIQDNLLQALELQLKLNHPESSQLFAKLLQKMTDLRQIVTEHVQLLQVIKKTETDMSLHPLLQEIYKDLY
Description: Displacement of [3H]rosiglitazone from human PPAR gamma by SPA assay

[2] = molecular target: T1, Peroxisome proliferator-activated receptor gamma; format: functional, cell-based, Huh-7
Description: Functional activity at human PPAR gamma in Huh7 cells by transactivation assay

[3] = molecular target: T2, Peroxisome proliferator-activated receptor alpha (Homo sapiens, UniProt Q07869); test: Functional activity at human PPAR alpha in Huh7 cells by transactivation assay; format: cell-based, Huh-7
T2 sequence (Q07869 whole entry): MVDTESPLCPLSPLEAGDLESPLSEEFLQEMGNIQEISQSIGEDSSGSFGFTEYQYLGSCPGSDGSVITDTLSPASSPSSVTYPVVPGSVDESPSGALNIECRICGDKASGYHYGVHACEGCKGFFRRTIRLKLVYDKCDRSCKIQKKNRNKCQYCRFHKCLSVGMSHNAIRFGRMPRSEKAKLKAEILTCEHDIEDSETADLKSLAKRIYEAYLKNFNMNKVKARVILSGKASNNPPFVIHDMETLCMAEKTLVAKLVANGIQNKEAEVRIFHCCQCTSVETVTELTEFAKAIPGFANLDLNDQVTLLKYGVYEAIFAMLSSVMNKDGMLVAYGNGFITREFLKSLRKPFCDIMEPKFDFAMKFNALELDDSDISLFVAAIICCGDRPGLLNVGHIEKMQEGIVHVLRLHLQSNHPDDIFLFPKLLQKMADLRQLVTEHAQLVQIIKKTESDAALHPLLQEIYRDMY

[4] = molecular target: T3, Peroxisome proliferator-activated receptor delta (Homo sapiens, UniProt Q03181)
T3 sequence (Q03181 whole entry): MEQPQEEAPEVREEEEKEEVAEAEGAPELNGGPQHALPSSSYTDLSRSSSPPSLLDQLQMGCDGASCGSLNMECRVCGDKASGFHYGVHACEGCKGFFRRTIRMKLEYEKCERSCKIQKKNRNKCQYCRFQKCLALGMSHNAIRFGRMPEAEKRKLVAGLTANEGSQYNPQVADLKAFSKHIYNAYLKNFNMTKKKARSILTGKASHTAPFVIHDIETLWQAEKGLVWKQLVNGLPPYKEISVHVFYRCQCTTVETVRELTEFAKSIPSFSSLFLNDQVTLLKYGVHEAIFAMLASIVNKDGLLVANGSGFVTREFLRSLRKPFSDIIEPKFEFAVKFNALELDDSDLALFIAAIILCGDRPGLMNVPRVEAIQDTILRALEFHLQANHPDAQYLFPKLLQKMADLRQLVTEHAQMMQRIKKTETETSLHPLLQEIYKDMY
Description: Functional activity at human PPAR delta in Huh7 cells by transactivation assay

[5] = Half life in male BALB/c mice administered with 9.7 mg/kg, iv; format: ADME, organism-based; design: dose 9.7 mg/kg, route intravenous; conditions: mouse, in vivo
[6] = Volume of distribution in male BALB/c mice administered with 9.7 mg/kg, iv; format: ADME, organism-based; design: dose 9.7 mg/kg, route intravenous; conditions: mouse, in vivo, read-out: Vss
[7] = Clearance in male BALB/c mice administered with 9.7 mg/kg, iv; format: ADME, organism-based; design: dose 9.7 mg/kg, route intravenous; conditions: mouse, in vivo
[8] = Area under curve (0-24) in male BALB/c mice administered with 9.7 mg/kg, iv; format: ADME, organism-based; design: dose 9.7 mg/kg, route intravenous; conditions: mouse, in vivo
[9] = Area under curve (0-24) in male BALB/c mice administered with 35 mg/kg, po; format: ADME, organism-based; design: dose 35 mg/kg, route oral; conditions: mouse, in vivo
[10] = Maximum concentration in male BALB/c mice administered with 35 mg/kg, po; format: ADME, organism-based; design: dose 35 mg/kg, route oral; conditions: mouse, in vivo
[11] = Time taken to achieve maximum concentration in male BALB/c mice administered with 35 mg/kg, po; format: ADME, organism-based; design: dose 35 mg/kg, route oral; conditions: mouse, in vivo
[12] = Half life in male BALB/c mice administered with 35 mg/kg, po; format: ADME, organism-based; design: dose 35 mg/kg, route oral; conditions: mouse, in vivo
[13] = Oral bioavailability in male BALB/c mice administered with 35 mg/kg, po; format: ADME, organism-based; conditions: mouse, in vivo
[14] = system: Mus musculus; test: Effect on reduction of plasma glucose in orally dosed KKAy/TaJcl mice at 10 mg/kg in a 10 day study; format: functional, organism-based; design: dose 10 mg/kg
[15] = system: Mus musculus; test: Effect on reduction of plasma glucose in orally dosed KKAy/TaJcl mice at 30 mg/kg in a 10 day study; format: functional, organism-based; design: dose 30 mg/kg

| IC50 [1] [µM] | EC50 [2] [µM] | Structure (SMILES) | EC50 [3] [µM] | EC50 [4] [µM] | further results |
| --- | --- | --- | --- | --- | --- |
| 1.28 | > 10 | CCCc1c(OCCCOc2cccc3c2ccn3C(CC)C(=O)O)ccc2c(C(F)(F)F)noc12 (stereo not drawn) |  |  |  |
| 1.3 | 3.03 | CCCc1c(OCC(C)COc2cccc3c2ccn3CC(=O)O)ccc2c(C(F)(F)F)noc12 (stereo not drawn) |  |  |  |
|  |  | CCCc1c(OCCCOc2ccc3c(ccn3CC(=O)[O-])c2)ccc2c(C(F)(F)F)noc12.[Na+] |  |  | half-life [5]: 6.9 h; Vd [6]: 0.4 L/kg; clearance [7]: 0.9 mL/min/kg; AUC [8]: 181 µg·h/mL; AUC [9]: 652 µg·h/mL; Cmax [10]: 59 µg/mL; Tmax [11]: 4.7 h; half-life [12]: 7.8 h; bioavailability [13]: 100% |
| 1.95 | > 10 | CCCc1c(OCCCOc2cccc3c2ccn3CC(=O)O)ccc2cc(-c3ccccc3)oc12 | > 10 | 7.74 |  |
| 2.41 | > 10 | CCCc1c(OCCCOc2ccc3c(ccn3CC(=O)O)c2)ccc2c(C(=O)C(F)(F)F)c[nH]c12 | 2.2 | 9.17 |  |
| 1.68 | 2.82 | CCCc1c(OCCCOc2cccc3c2ccn3CC(=O)O)ccc2cc(-c3ccccc3)[nH]c12 | 0.5 | 3.34 |  |
| 1.78 | > 10 | CCCc1c(OCCCCCOc2cccc3c2ccn3CC(=O)O)ccc2c(C(F)(F)F)noc12 |  |  |  |
| 3.97 | 4.15 | CCCc1c(OCCCOc2cccc3c2ccn3CC(=O)O)ccc2c(-c3ccccc3)coc12 | 0.169 | 2.13 |  |
| 0.584 | 1.2 | CCCc1c(OCCCOc2ccc3c(ccn3CCC(=O)O)c2)ccc2c(C(F)(F)F)noc12 |  |  |  |
|  |  | CCCc1c(OCCCOc2ccc3c(ccn3CC(=O)O)c2)ccc2c(C(F)(F)F)noc12 [listing 1 of 2 here] | 0.014 |  |  |
| 1.49 | > 10 | CCCc1c(OCCOc2cccc3c2ccn3CC(=O)O)ccc2c(C(F)(F)F)noc12 |  |  |  |
| 1.37 | > 10 | CCCc1c(OCCC(C)CCOc2ccc3c(ccn3CC(=O)O)c2)ccc2c(C(F)(F)F)noc12 (stereo not drawn) |  |  |  |
|  |  | CCCc1c(OCCCOc2ccc3c(ccn3CC(=O)O)c2)ccc2c(C(F)(F)F)noc12 [listing 2 of 2 here] |  |  | Activity [14]: Active; Activity [15]: Active |
| 1.71 | 5.9 | CCCc1c(OCCCOc2ccc3c(ccn3C(CC)C(=O)O)c2)ccc2c(C(F)(F)F)noc12 (stereo not drawn) |  |  |  |
| 1.05 | 1.49 | CCCc1c(OCCCCCOc2ccc3c(ccn3CC(=O)O)c2)ccc2c(C(F)(F)F)noc12 |  |  |  |
| 1.1 | 2.19 | CCCc1c(OCCCOc2cccc3c2ccn3CCC(=O)O)ccc2c(C(F)(F)F)noc12 |  |  |  |
| 1.45 | > 10 | CCCc1c(OCCC(C)CCOc2cccc3c2ccn3CC(=O)O)ccc2c(C(F)(F)F)noc12 (stereo not drawn) |  |  |  |

| Structure (SMILES) | IC50 [1] [µM] | EC50 [2] [µM] | EC50 [3] [µM] | EC50 [4] [µM] | further results |
| --- | --- | --- | --- | --- | --- |
| CCCc1c(OCCCOc2ccc3c(ccn3Cc3nn[nH]n3)c2)ccc2c(C(F)(F)F)noc12 | 1.12 | 0.898 | 0.474 | 0.37 |  |
| CCCc1c(OCCCCOc2cccc3c2ccn3CC(=O)O)ccc2c(C(F)(F)F)noc12 | 0.774 | 1.98 | > 10 | > 10 |  |
| CCCc1c(OCCCOc2cccc3c2ccn3CC(=O)O)ccc2c(-c3ccccc3)noc12 | 0.127 | 0.43 | 0.002 | 0.32 |  |
| CCCc1c(OCCOc2ccc3c(ccn3CC(=O)O)c2)ccc2c(C(F)(F)F)noc12 | 0.422 | 0.69 | 0.311 | 0.125 |  |
| CCCc1c(OCCCOc2cccc3c2ccn3CC(=O)O)ccc2c(C(F)(F)F)noc12 | 1.99 | 2.39 | 0.186 | 0.61 |  |
| CCCc1c(OCCCOc2ccc3c(ccn3CC(=O)O)c2)ccc2c(C#N)c[nH]c12 | 0.759 | 9.17 | 5.21 | 2.62 |  |
| CCCc1c(OCCCOc2ccc3ccn(CC(=O)O)c3c2)ccc2c(C(F)(F)F)noc12 | 1.05 | 1.35 | 1.82 | 0.08 |  |
| CCCc1c(OCCCOc2cccc3c2ccn3CC(=O)O)ccc2cc[nH]c12 | 4.81 | 1.81 | 1.21 | 0.42 |  |
| CCCc1c(OCCCCOc2ccc3c(ccn3CC(=O)O)c2)ccc2c(C(F)(F)F)noc12 | 0.105 | 0.28 | 1.04 | 0.243 |  |
| CCCc1c(OCCCOc2ccc3c(ccn3CC(=O)O)c2)ccc2c(-c3ccccc3)noc12 | 0.12 | 0.29 | 0.018 | 0.08 |  |
